This is an account of results in patent US20110008343A1, “Method Of Reducing Tissue Loss In Pancreatic Islet Cell Transplantation” (priority 2007, published 2011).

Series [1] has as its system human islets. The series can be described thus: C-peptide release from human islets in AB0-compatible plasma (ELISA). In kind it is cell-based. As to conditions: 30 minutes at 37° C., 10 μM compstatin. On the procedure: (§1) Analysis of islets by COPAS and confocal microscopy: Approximately 5000 islets were added to 200 μl of human AB0-compatible hirudin-plasma or whole blood in heparinized test tubes. In some experiments, AB0-compatible hirudin-treated plasma was pre-incubated with or without 10 μM Ac-ICV(1MeW)[…]-NH2 (SEQ ID NO: 4; Katragadda et al., (2006) J Med Chem 49:4616-4622), a potent compstatin analog, for 15 minutes at 37° C. before the islets were added. The mixture of islets and plasma was incubated, with gentle shaking, at 37° C. for up to 30 minutes.
After centrifugation and addition of 10 mM EDTA (final concentration), the supernatants were stored at −70° C. The remaining islets were washed twice in cold PBS as described above. In order to visualize necrotic cells, propidium iodide (PI) was added to the islets 5 minutes before COPAS analysis. Islets that had not been incubated in plasma were used as controls. The islets were also examined by confocal microscopy.
C-peptide: Plasma was diluted 1/200 and analyzed using a C-peptide ELISA (Mercodia, Uppsala, Sweden).

The test system of series [2] is human islets. The series can be described thus: Binding of C3b/iC3b to human islets incubated in AB0-compatible hirudin-treated plasma (COPAS, confocal microscopy). Format: cell-based. The method, then: (§2) Complex object parametric analyzer and sorter (COPAS) analysis: The fluorescence-stained islets were analyzed using a complex object parametric analyzer and sorter (COPAS; Union Biometrica, Somerville, Mass.), which is a large-particle-based flow cytometry instrument. One thousand islets were collected using a 488/514 multi-line laser, and positive cells were sorted out for further analysis by confocal microscopy. The COPAS flow cytometry data were analyzed using CellQuest™ Pro software (BD Biosciences Immunocytometry Systems). Data are reported as mean fluorescent intensity (MFI).
Confocal microscopy: Stained islets were contained in a drop of PBS in a small Petri dish and protected from light before examination in the confocal microscope (Zeiss 510 Meta confocal, Carl Zeiss, Jena, Germany). Examination of the stained islets was performed using the 488-nm laser at 10× magnification. […]
FITC-labeled antibodies recognizing the following proteins were diluted and used according to the manufacturer's recommendations: Clq (AbCam, Cambridge, UK), C3c (for detection of C3b and iC3b), C4, C9, mannose-binding lectin (MBL), IgG, and IgM (DakoCytomation, Glostrup, Denmark). […] After washing, the islets were treated with 1% formaldehyde (Apoteket, Gothenburg, Sweden) and held on ice until analyzed by COPAS and confocal microscopy.

The subject of a further series is porcine islets. In words: Binding of C3b/iC3b to porcine islets incubated in human hirudin-treated plasma. As to conditions: compstatin 10 μM. In kind it is cell-based, pig. The method, then:
Treatment of porcine islets with human plasma: Approximately 1000 pig islets/40 μL of plasma (typically 5000 islets in 200 μL) were incubated in human hirudin-treated plasma in heparinized test tubes. Five different islet preparations and five different plasma preparations were used in these experiments. In some experiments, hirudin-treated plasma was preincubated with 10 μM (final concentration) of the potent compstatin analog, Ac-ICV(1MeW)[…]-NH2 (SEQ ID NO: 4; Katragadda et al., (2006) J Med. Chem. 49 (15): 4616), for 15 minutes at 37° C. before the islets were added. The mixture of islets and plasma was then incubated, with gentle shaking, at 37° C. for up to 30 min. […]
For all immunostaining experiments, the islets were incubated, while gently rotating on ice, for 30 minutes in the presence of an individual antibody. After being washed with PBS, the islets were treated with 1% formaldehyde (Apoteket, Gothenburg, Sweden) and kept on ice until analyzed.
Complex object parametric analyzer and sorter (COPAS) analysis: The fluorescence-stained islets were analyzed using a complex object parametric analyzer and sorter (COPAS; Union Biometrica, Somerville, Mass.), which is a large particle-based flow cytometry instrument previously used for islet analysis (Fernandez et al., (2005) Transplantation 80 (6): 729). […]

Another series relates to complement activation. The series can be described thus: Complement inhibition assay in 10% human serum (bound C3 fragments in microtiter wells). In kind it is biochemical. On the procedure:
Complement inhibition assay: One hundred microliters of 10% human serum (v/v), diluted in veronal buffer with 1 mM Ca^2+, 0.3 mM Mg^2+, 1% (w/v) BSA, and 0.05% (v/v) Tween 20, was incubated in the presence of serially diluted LMW-DS and/or compstatin in wells of microtiter plates for 30 minutes at 37° C. The wells were then washed with PBS containing 0.05% (v/v) Tween 20, and the bound C3 fragments were detected using […], of HRP-conjugated anti-C3c (Dako AS, Glostrup, Denmark).

The test system of series [3] is human islets. In words: Lysis of islet cells, PI staining analysed by COPAS. Format: cell-based. As to conditions: AB0-compatible plasma, 37° C., 30 minutes, 10 μM compstatin. On the procedure: as §2, §1
(§3) After centrifugation and addition of 10 mM EDTA (final concentration), the supernatants were stored at −70° C. The remaining islets were washed twice in cold PBS as described above. […]

Another series has as its system C3a and sC5b-9. In words: C3a and sC5b-9 generation in supernatants of plasma-incubated human islets (ELISA). Format: cell-based. On the procedure:
as §1, §3
C3a: Plasma was diluted 1/1000 in working buffer and analyzed as described previously (Enkdahl et al., 1992, Scand J Immunol 35: […]). […] Bound C3a was detected with biotinylated rabbit anti-C3a diluted 1/150, followed by HRP-conjugated streptavidin (Amersham, Little Chalfort, UK), diluted 1/500. […]
sC5b-9: Plasma was analyzed using a modification of the EIA described by Mollnes et al., 1985, Scand J Immunol 22: 197-202. Plasma diluted 1/5 was added to microtiter plates coated with anti-neoC9 monoclonal antibody MCaE11. sC5b-9 was detected with a polyclonal anti-C5 antibody diluted 1/500 (Dako A/S, Denmark), followed by HRP-conjugated anti-rabbit Ig diluted 1/500 (Dako). […]

Series [4] can be described thus: Plasma APTT and LMW-DS concentration in transplanted monkeys. In kind it is in vivo, Cynomolgus monkeys (Macaca fascicularis). On the procedure:
Blood samples: […] […] Analyses of blood and plasma samples: Activated Partial Thromboplastin Time (APTT) measurements were performed as previously described (Johansson et al., (2006) Am J. Transplant. 6 (2): 305).

Series [5] is described as follows: Blood cell counts, liver and renal function in monkeys transplanted with porcine islets. In kind it is in vivo, Cynomolgus monkeys (Macaca fascicularis). As to conditions: 24 hours after islet transplantation; in U/L (unit assumed).
Series [6] has as its system porcine islet grafts. The series can be described thus: Histological evaluation of grafted pig islets 24 h after intraportal transplantation.
For series [7], the system named is porcine islet grafts. The series can be described thus: Immunohistochemical staining of grafted pig islets 24 h after intraportal transplantation.
In a further series the test system is IBMIR. The method, then: Blood samples: All blood samples from monkeys were drawn from a femoral vein catheter at 0, 20, and 40 min and at 1, 3 and 24 h after transplantation. Blood was drawn from healthy human blood donors into 7-mL tubes containing […] of hirudin, a specific inhibitor of thrombin (Refludan; Pharmion Ltd, Cambridge, UK). To obtain plasma, the samples were centrifuged at 4500×g for 5 min. If not immediately analyzed for activated partial thromboplastin time (APTT), the samples were stored at −70° C.
Platelet counts and differential leukocyte counts were obtained using a Coulter ACT-diff analyzer (Beckman Coulter, Miami, Fla.) and EDTA-treated blood. Plasma levels of thrombin-antithrombin (TAT) were quantified using commercially available EIA kits (TAT, Behringswerke, Marburg, Germany). C3a generation was measured in plasma according to the method of Nilsson Ekdahl et al. ((1992) Scand J. Immunol. 35 (1): 85), and sC5b-9 was analyzed using a modification of the enzyme immunoassay described by Nilsson Ekdahl et al. ((1992) Scand J. Immunol. 35 (1): 85) and Mollnes et al. ((1995) Artif Organs 19 (9): 909).

[8] abbreviates: both treated monkeys compared to the controls.

Entries after “also recorded” stand apart in the source; their conditions may differ.

With Ac-ICV(1MeW)QDWGAHRCT-NH2 [compstatin], the “release of C-peptide” value in the series with human islets [1] is “totally inhibited”. In addition, in the series with human islets [2] (human islets in plasma, 5 and 30 minutes), the “C3b/iC3b binding by confocal microscopy” value is reported as “totally prevented”. Moreover, the “binding of C3b/iC3b to the islets” value in the series on human islets [2] (human islets, AB0-compatible plasma, compstatin 10 μM, COPAS) was “significantly reduced; also recorded: abolished”; in the series with porcine islets, “significantly reduced”. Moreover, the results for the “inhibition of complement activation” value in the series on complement activation (compstatin 5 μM), with complement activation (compstatin above 0.5 μM) and in the series on complement activation (compstatin below 0.5 μM) were “total inhibition”, “gradually inhibited” and “no effect”, respectively. For the same substance, the “PI staining (lysis of islet cells)” value with human islets [3] is given as “totally abrogated”. In addition, the “generation of fluid-phase complement activation products (C3a, sC5b-9)” value with C3a and sC5b-9 (human islets, AB0-compatible plasma, compstatin 10 μM) is listed as “abrogated”.
With Heparin, the APTT in series [4] (heparin-treated monkeys, throughout the whole study period) is 25 to 40 s (s). In [5], the ALT is 116.8±47.7 and the AST is given as 288.0±130.4. Further, the “completely preserved islets (score 0 in all categories)” value in the series with porcine islet grafts [6] (control monkey M-10) is recorded as 22%.
For “Low molecular weight dextran sulfate [LMW-DS]”, in the series with porcine islet grafts [7] (24 h grafts), the “deposition of C3 fragment and C9 on the surface of the islets” value was “no clear inhibition”. Also, in the series with porcine islet grafts [7] (vs controls M8 and M10), the “CD3+ T cell infiltration” value is listed as “effectively suppressed”. Further, the “CD68+ macrophages in grafts” value in the series on porcine islet grafts [7] (vs heparin controls, p=0.002) is recorded as “abrogated”. The “neutrophil elastase positive PMNs in grafts” value with porcine islet grafts [7] (vs heparin controls, p=0.04) was “abrogated”. For the same substance, in the series on porcine islet grafts [7] (vs heparin controls, p=0.056), the “CD41+ platelets in grafts” value is “abrogated”. Besides, the “inhibition of complement activation” value is reported as “more pronounced” with complement activation (LMW-DS above 100 mg/L, absence of compstatin); “only marginally” in the series with complement activation (LMW-DS between 10 and 100 mg/L, absence of compstatin). Also, the APTT entry in [4] (LMW-DS-treated monkeys, 15 minutes after islet infusion) is “around 100 s”; in series [4] (monkey M-5, after 24 hours), 101 s; in series [4] (monkey M-7, after 24 hours), 66 s; in [4] (monkey M-9, after 24 hours), 107 s. Moreover, the “histology of the transplanted grafts” value in the series on porcine islet grafts [6] (24 h after transplantation, semiquantitative scoring) is “well kept”. Besides, the “completely preserved islets (score 0 in all categories)” value was found to be 37.2% with porcine islet grafts [6] (monkey M-6 as printed) and 44% with porcine islet grafts [6] (monkey M-9). Also, the “increase of coagulation marker TAT” value in the series on IBMIR (LMW-DS-treated monkeys vs heparin controls) is recorded as “effectively inhibited”. Besides, in the series with IBMIR (setting [8]), the “complement activation parameter C3a” value was “suppressed”. Besides, the “complement activation parameter sC5b-9” value in the series with IBMIR (setting [8]) is listed as “suppressed”. The TAT result in the series on IBMIR (monkey M-5) is on record as “totally suppressed”.
hirudin: in the series with C3a and sC5b-9 (islets in whole blood anticoagulated with hirudin, n=4), the “generation of C3a and sC5b-9” value was “no effect”.
